Consider twelve compounds from patent publication US9586951B2 (FUJIFILM Corporation, priority 2013, dated 2017).

T1 sequence (Q13315 whole entry): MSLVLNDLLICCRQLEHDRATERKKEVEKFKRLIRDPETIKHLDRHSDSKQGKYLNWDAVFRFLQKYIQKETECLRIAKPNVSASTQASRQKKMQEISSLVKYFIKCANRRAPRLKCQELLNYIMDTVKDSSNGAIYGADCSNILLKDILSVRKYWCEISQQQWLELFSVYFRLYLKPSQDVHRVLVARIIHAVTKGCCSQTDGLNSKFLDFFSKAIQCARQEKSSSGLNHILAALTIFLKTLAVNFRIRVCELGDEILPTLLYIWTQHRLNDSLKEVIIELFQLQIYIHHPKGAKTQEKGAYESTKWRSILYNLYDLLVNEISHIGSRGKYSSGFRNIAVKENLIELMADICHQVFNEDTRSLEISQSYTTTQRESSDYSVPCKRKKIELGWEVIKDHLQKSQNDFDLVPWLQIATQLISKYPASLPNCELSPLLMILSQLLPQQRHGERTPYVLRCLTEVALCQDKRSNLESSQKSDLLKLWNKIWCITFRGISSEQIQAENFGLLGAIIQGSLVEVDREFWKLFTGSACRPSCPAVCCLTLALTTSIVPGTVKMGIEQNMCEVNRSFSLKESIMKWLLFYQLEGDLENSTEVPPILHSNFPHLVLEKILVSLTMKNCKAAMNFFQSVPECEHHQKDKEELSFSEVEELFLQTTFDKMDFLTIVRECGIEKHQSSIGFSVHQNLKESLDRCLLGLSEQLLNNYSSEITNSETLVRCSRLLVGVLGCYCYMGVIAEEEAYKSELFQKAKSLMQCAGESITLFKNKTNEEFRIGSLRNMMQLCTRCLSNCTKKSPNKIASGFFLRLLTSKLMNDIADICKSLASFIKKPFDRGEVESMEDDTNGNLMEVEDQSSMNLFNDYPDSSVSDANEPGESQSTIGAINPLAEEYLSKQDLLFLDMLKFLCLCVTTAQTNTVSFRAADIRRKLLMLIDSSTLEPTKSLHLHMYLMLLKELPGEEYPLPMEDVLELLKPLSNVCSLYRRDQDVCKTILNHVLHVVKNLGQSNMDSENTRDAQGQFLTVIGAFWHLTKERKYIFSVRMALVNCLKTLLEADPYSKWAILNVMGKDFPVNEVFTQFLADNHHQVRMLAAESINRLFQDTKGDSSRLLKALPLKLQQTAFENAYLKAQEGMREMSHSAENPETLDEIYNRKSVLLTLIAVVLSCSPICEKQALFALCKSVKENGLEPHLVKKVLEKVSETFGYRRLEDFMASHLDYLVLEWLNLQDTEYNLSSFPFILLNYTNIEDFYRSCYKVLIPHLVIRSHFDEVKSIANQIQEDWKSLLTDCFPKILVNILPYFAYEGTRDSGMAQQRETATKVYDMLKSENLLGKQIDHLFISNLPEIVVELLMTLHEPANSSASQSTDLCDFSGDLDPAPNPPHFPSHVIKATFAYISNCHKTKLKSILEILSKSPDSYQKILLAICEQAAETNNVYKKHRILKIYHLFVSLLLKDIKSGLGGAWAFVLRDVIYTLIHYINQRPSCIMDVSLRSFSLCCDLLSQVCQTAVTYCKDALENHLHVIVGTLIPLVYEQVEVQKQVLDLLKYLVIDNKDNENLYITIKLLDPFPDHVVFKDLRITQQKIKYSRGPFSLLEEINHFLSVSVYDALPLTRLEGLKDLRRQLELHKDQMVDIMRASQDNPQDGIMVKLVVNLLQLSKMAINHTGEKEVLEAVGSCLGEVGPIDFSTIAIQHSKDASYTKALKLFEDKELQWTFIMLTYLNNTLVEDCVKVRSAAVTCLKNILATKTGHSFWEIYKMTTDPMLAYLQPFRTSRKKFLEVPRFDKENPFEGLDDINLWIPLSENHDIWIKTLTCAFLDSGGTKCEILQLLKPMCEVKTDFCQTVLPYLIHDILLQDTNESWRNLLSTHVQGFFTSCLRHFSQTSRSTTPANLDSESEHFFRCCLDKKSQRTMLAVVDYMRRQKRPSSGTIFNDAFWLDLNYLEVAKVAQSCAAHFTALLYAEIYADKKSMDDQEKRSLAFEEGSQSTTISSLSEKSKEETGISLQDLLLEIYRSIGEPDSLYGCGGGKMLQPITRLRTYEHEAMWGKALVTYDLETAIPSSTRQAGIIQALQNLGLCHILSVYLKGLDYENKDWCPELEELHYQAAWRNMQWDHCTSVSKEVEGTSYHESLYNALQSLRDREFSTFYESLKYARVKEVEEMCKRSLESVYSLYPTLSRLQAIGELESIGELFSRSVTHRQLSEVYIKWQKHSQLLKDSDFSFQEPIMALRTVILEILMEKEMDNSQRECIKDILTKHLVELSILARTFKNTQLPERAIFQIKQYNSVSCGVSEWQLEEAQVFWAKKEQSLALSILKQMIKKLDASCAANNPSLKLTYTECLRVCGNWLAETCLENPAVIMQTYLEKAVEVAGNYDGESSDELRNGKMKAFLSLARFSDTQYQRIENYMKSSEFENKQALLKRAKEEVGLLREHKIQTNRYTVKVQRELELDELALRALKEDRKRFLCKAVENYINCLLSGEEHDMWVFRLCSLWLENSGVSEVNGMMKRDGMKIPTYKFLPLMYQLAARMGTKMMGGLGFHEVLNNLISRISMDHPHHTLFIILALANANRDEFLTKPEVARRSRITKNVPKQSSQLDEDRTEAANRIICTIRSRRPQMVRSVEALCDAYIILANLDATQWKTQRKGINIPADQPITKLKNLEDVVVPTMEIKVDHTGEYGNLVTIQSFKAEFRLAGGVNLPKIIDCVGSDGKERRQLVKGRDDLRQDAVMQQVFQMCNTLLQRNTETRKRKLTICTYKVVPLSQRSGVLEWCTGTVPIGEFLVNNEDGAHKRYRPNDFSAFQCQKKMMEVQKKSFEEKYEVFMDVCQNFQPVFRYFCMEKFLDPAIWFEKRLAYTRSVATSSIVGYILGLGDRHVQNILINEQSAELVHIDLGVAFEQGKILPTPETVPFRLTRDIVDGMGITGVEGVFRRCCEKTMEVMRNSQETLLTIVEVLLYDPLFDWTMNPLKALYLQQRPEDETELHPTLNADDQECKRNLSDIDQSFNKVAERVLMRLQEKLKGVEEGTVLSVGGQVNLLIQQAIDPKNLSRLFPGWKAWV

The experiment addresses T1, ATM (Homo sapiens, UniProt Q13315).
T1 construct: detecting phosphorylation of Chk2 in a human non-small cell lung cancer cell line NCI-H460 (ATCC company); host or cells: NCI-H460 human non-small cell lung cancer cells
The experiment in a line: ATM inhibition test (phosphorylation of Chk2 generated by ionizing radiation, AlphaScreen SureFire). As to conditions: phosphorylated Chk2 in NCI-H460 cells, ionizing radiation 8Gy, 1 hour after test compound treatment; read-out: ATM inhibitory activity. The class given is cell-based. A digest of the protocol: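 Phosphorylated Chk2 read by AlphaScreen SureFire in human non-small cell lung cancer NCI-H460 cells, 1 hour after 8Gy ionizing radiation at 37° C. Compound added 1 hour before irradiation. Percent inhibition normalised between irradiated and non-irradiated drug-untreated signals.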
With `Cc1ccc(C(Nc2ccc3c(c2)Sc2cccc(-c4cc(N5CCOCC5)cc(=O)[nH]4)c2S3)C2CCC2)nc1` (stereo not drawn) [Example 1-12-124, 6-(7-((Cyclobutyl(5-methylpyridin-2-yl)methyl)amino)thianthren-1-yl)-4-morpholino pyridin-2(1H)-one], the IC50 is 100 to 500 nM.

With `Cc1cncc(C(C)Nc2ccc3c(c2)Cc2cccc(-c4cc(N5CCOCC5)cc(=O)[nH]4)c2O3)n1` (stereo not drawn) [Example 2-14-49, 6-(7-((1-(6-Methylpyrazin-2-yl)ethyl)amino)-9H-xanthen-4-yl)-4-morpholino pyridin-2(1H)-one], the IC50 fell in the range of 100 to 500 nM.

Turning to `Cc1cnc(CNc2ccc3c(c2)Cc2cccc(-c4cc(N5CCOCC5)cc(=O)[nH]4)c2O3)s1` [Example 2-14-47, 6-(7-(((5-Methylthiazol-2-yl)methyl)amino)-9H-xanthen-4-yl)-4-morpholino pyridin-2(1H)-one], the IC50 was 100 to 500 nM.

Regarding `CC(Nc1ccc2c(c1)Cc1cccc(-c3cc(N4CCOCC4)cc(=O)[nH]3)c1O2)C(=O)N1CCCC1` (stereo not drawn) [Example 2-15, 4-Morpholino-6-(7-((1-oxo-1-(pyrrolidin-1-yl)propan-2-yl)amino)-9H-xanthen-4-yl)pyridin-2(1H)-one], the IC50 lay in the range of 100 to 500 nM.

Consider `COc1cc(CNc2ccc3c(c2)Sc2cccc(-c4cc(N5CCOCC5)cc(=O)[nH]4)c2O3)ccn1` [Example 4-8-4, 6-(8-(((2-Methoxypyridin-4-yl)methyl)amino)phenoxathiin-4-yl)-4-morpholino pyridin-2(1H)-one], for which the IC50 lay in the range of 100 to 500 nM.

As for `COc1ccc(CNc2ccc3c(c2)Cc2cc(C)cc(-c4cc(N5CCOCC5)cc(=O)[nH]4)c2O3)cn1` [Example 2-49-1, 6-(7-(((6-Methoxypyridin-3-yl)methyl)amino)-2-methyl-9H-xanthen-4-yl)-4-morpholinopyridin-2(1H)-one], the IC50 was 500 to 2000 nM.

In the case of `Cc1cnc(C(CCN(C)C)Nc2ccc3c(c2)Cc2cccc(-c4cc(N5CCOCC5)cc(=O)[nH]4)c2O3)cn1` (single isomer, unassigned) [Example 12-4, 6-(7-((3-(Dimethylamino)-1-(5-methylpyrazin-2-yl)propyl)amino)-9H-xanthen-4-yl)-4-morpholinopyridin-2(1H)-one], the IC50 is below 100 nM.

Consider `O=c1cc(N2CCOCC2)cc(-c2cccc3c2Oc2ccc(NC4CCCN(CCc5ccccc5)C4)cc2C3)[nH]1` (stereo not drawn) [Example 2-19-3, 4-Morpholino-6-(7-((1-phenethylpiperidin-3-yl)amino)-9H-xanthen-4-yl)pyridin-2(1H)-one], for which the IC50 is 500 to 2000 nM.

For the compound `CC(CNc1ccc2c(c1)Sc1cccc(-c3cc(N4CCOCC4)cc(=O)[nH]3)c1S2)N1CCOCC1` (single isomer, unassigned) [Example 1-9-2-3, 4-morpholino-6-(7-((2-morpholinopropyl)amino)thianthren-1-yl)pyridin-2(1H)-one], the IC50 lay within 100 to 500 nM.

Consider `CCN(CC)CC(Nc1ccc2c(c1)Sc1cccc(-c3cc(N4CCOCC4)cc(=O)[nH]3)c1S2)c1cnc(C)cn1` (stereo not drawn) [Example 1-33, 6-(7-((2-(diethylamino)-1-(5-methylpyrazin-2-yl)ethyl)amino)thianthren-1-yl)-4-morpholinopyridin-2(1H)-one], for which the IC50 was 100 to 500 nM.

For the compound `O=c1cc(N2CCOCC2)cc(-c2cccc3c2Oc2ccc(NC4CCN(Cc5cncc(F)c5)CC4)cc2C3)[nH]1` [Example 2-28-18, 6-(7-((1-((5-Fluoropyridin-3-yl)methyl)piperidin-4-yl)amino)-9H-xanthen-4-yl)-4-morpholino pyridin-2(1H)-one], the IC50 lay in the range of 100 to 500 nM.

For `O=c1cc(N2CCOCC2)cc(-c2cccc3c2Sc2ccc(NC4CCCN(C5CCOCC5)C4)cc2S3)[nH]1` (stereo not drawn) [Example 1-24-7, 4-Morpholino-6-(7-((1-(tetrahydro-2H-pyran-4-yl)piperidin-3-yl)amino)thianthren-1-yl)pyridin-2 (1H)-one], the IC50 lay within 100 to 500 nM.
